Assay results: the supplement of paper PMC10307832

What was measured:
Assay in all cases: relative viability (nuclei count vs DMSO), 5 days (fraction); higher = more cells survive
[1] = compound: CCn1c(-c2nonc2N)nc2cnc(Oc3cccc(NC(=O)c4ccc(OCCN5CCOCC5)cc4)c3)cc21 + COc1cccc2cc(-c3nc([C@H]4CC[C@H](C(=O)O)CC4)n4ncnc(N)c34)[nH]c12 [OSI-027] (partner 0.5 µM)
In short: (§1)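 The day after seeding in 1536-well plates, lung cancer cell lines were treated by pin tool with a single drug, or with a fixed anchor-drug dose together with five library-drug doses (not always all listed) in √10 steps. After 5 days, a combined fix-and-stain solution (final 0.05% Triton X-100, 1% formaldehyde, 1 ug/ml Hoechst) was added. Nuclei counted on 4× images gave relative viability as treated counts over vehicle counts, reported as the median of duplicate plates.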

Mirin + Alpelisib = compound: N=C1NC(=O)/C(=C/c2ccc(O)cc2)S1 [Mirin] + Cc1nc(NC(=O)N2CCC[C@H]2C(N)=O)sc1-c1ccnc(C(C)(C)C(F)(F)F)c1 [Alpelisib] (partner 2 µM)
In short: as §1

[2] = compound: CCC1=CN=CN=C1N2CCN(CC2)CC3=NC4=C(N3)C=C(C=C4)C(F)(F)F + COc1cccc2cc(-c3nc([C@H]4CC[C@H](C(=O)O)CC4)n4ncnc(N)c34)[nH]c12 [OSI-027] (partner 0.5 µM)
In short: as §1

[3] = compound: CCC1=CN=CN=C1N2CCN(CC2)CC3=NC4=C(N3)C=C(C=C4)C(F)(F)F + O=C(CCCCCCC(=O)Nc1ccccc1)NO [Vorinostat] (partner 1 µM)
In short: as §1

Cell Line | relative viability ([1]; first compound 0.04 µM) | relative viability ([1]; first compound 0.1265 µM) | relative viability ([1]; first compound 0.4 µM) | relative viability ([1]; first compound 1.265 µM) | relative viability ([1]; first compound 4 µM) | relative viability (Mirin + Alpelisib; first compound 0.25 µM) | relative viability (Mirin + Alpelisib; first compound 0.7906 µM) | relative viability (Mirin + Alpelisib; first compound 2.5 µM) | relative viability (Mirin + Alpelisib; first compound 7.906 µM) | relative viability (Mirin + Alpelisib; first compound 25 µM) | relative viability ([2]; first compound 0.04 µM) | relative viability ([2]; first compound 0.1265 µM) | relative viability ([2]; first compound 0.4 µM) | relative viability ([2]; first compound 1.265 µM) | relative viability ([2]; first compound 4 µM) | relative viability ([3]; first compound 0.04 µM) | relative viability ([3]; first compound 0.1265 µM) | relative viability ([3]; first compound 0.4 µM) | relative viability ([3]; first compound 1.265 µM) | relative viability ([3]; first compound 4 µM)
NCI-H1993 | 0.612 | 0.624 | 0.573 | 0.569 | 0.539 | 0.663 | 0.779 | 0.681 | 0.65 | 0.674 | 0.49 | 0.55 | 0.614 | 0.494 | 0.604 | 0.846 | 0.983 | 0.648 | 0.816 | 0.964
NCI-H2347 | 0.502 | 0.505 | 0.426 | 0.334 | 0.333 | 1.02 | 1.12 | 1.05 | 1.08 | 1.16 | 0.471 | 0.446 | 0.374 | 0.262 | 0.406 | 0.61 | 0.673 | 0.649 | 0.321 | 0.516
SW 900 | 0.553 | 0.557 | 0.421 | 0.559 | 0.578 | – | – | – | – | – | 0.529 | 0.543 | 0.539 | 0.421 | 0.476 | 0.454 | 0.45 | 0.403 | – | 0.422
NCI-H1299 | – | – | – | – | – | 1.01 | 1.16 | 1.06 | 0.622 | 1.21 | – | – | – | – | – | – | – | – | – | –
NCI-H1563 | 0.697 | 0.705 | 0.576 | 0.724 | 0.644 | 0.918 | 0.958 | 0.92 | 0.937 | 0.833 | 0.813 | 0.788 | 0.733 | 0.685 | 0.821 | – | – | – | – | –
NCI-H1650 | 0.666 | 0.678 | 0.551 | 0.535 | 0.656 | – | – | – | – | – | 0.635 | 0.621 | 0.565 | – | 0.752 | 0.635 | 0.73 | 0.503 | 0.359 | 0.636
Calu-6 | – | – | – | – | – | 0.922 | 1.07 | 1.02 | 0.831 | 0.769 | – | – | – | – | – | – | – | – | – | –
NCI-H1703 | – | – | – | – | – | 0.363 | 0.259 | 0.314 | – | 0.213 | – | – | – | – | – | – | – | – | – | –
EBC-1 | – | – | – | – | – | 0.952 | 0.984 | 0.862 | 0.587 | 0.553 | – | – | – | – | – | – | – | – | – | –
NCI-H2342 | 0.716 | 0.696 | 0.535 | 0.487 | 0.577 | – | – | – | – | – | 0.607 | 0.577 | 0.574 | 0.479 | 0.586 | 0.629 | 0.736 | 0.744 | 0.531 | 0.565
ChaGo-K-1 | 0.679 | 0.521 | 0.313 | 0.393 | 0.307 | – | – | – | – | – | 0.542 | 0.564 | 0.513 | 0.559 | 0.52 | 0.792 | 0.75 | 0.712 | 0.648 | 0.824
NCI-H1648 | 0.258 | 0.393 | 0.276 | 0.314 | 0.327 | – | – | – | – | – | 0.259 | 0.278 | – | 0.278 | 0.314 | 0.684 | – | – | 0.362 | 0.403
NCI-H522 | 0.742 | 0.818 | 0.642 | 0.55 | 0.587 | – | – | – | – | – | 0.656 | 0.771 | 0.575 | 0.627 | 0.675 | 0.951 | 1.02 | 0.75 | 0.771 | 0.973
A549 | – | – | – | – | – | 0.635 | 0.719 | 0.58 | 0.58 | 0.733 | – | – | – | – | – | – | – | – | – | –
